Assays:
Experiment in all cases: cells
YAPC = type: functional, cell-based, Homo sapiens; conditions: Homo sapiens, YAPC;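 also: growth inhibition of YAPC cells, measured with a cell viability assay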
Description: SANGER: Inhibition of human YAPC cell growth in a cell viability assay.

HCC1937 = type: functional, cell-based, Homo sapiens; conditions: Homo sapiens, HCC1937;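 also: growth inhibition measured with a cell viability read-out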
Description: SANGER: Inhibition of human HCC1937 cell growth in a cell viability assay.

MDA-MB-157 = type: functional, cell-based, Homo sapiens; conditions: Homo sapiens, MDA-MB-157
Description: SANGER: Inhibition of human MDA-MB-157 cell growth in a cell viability assay.

SW48 = type: functional, cell-based, Homo sapiens; conditions: Homo sapiens, SW48;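 also: growth inhibition of SW48 cells, read out with a cell viability assay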
Description: SANGER: Inhibition of human SW48 cell growth in a cell viability assay.

HCC1806 = type: functional, cell-based, Homo sapiens; conditions: Homo sapiens, HCC1806;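 also: growth inhibition of the cancer cell line, determined with a cell viability assay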
Description: SANGER: Inhibition of human HCC1806 cell growth in a cell viability assay.

CAKI-1 = type: functional, cell-based, Homo sapiens; conditions: Homo sapiens, CAKI-1;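 also: growth inhibition of CAKI-1 cells, measured by a cell viability assay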
Description: SANGER: Inhibition of human CAKI-1 cell growth in a cell viability assay.

HGC-27 = type: functional, cell-based, Homo sapiens; conditions: Homo sapiens, HGC-27;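 also: growth inhibition of human HGC-27 cells, read out in a cell viability assay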
Description: SANGER: Inhibition of human HGC-27 cell growth in a cell viability assay.

EW-1 = type: functional, cell-based, Homo sapiens; conditions: Homo sapiens, EW-1
Description: SANGER: Inhibition of human EW-1 cell growth in a cell viability assay.

MOLT-4 = type: functional, cell-based; conditions: Homo sapiens;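 also: growth inhibition of MOLT-4 cells, determined with a cell viability readout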
Description: SANGER: Inhibition of human MOLT-4 cell growth in a cell viability assay.

COLO-680N = type: functional, cell-based, Homo sapiens; conditions: Homo sapiens, COLO-680N;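 also: cell viability assay used to measure inhibition of COLO-680N cell growth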
Description: SANGER: Inhibition of human COLO-680N cell growth in a cell viability assay.

KU812 cell line = type: functional, cell-based; conditions: Homo sapiens;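 also: growth inhibition of KU812 cells, read out with a cell viability assay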
Description: SANGER: Inhibition of human KU812 cell growth in a cell viability assay.

KYSE-270 = type: functional, cell-based, Homo sapiens; conditions: Homo sapiens, KYSE-270;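 also: cell growth inhibition measured with a viability assay in the human KYSE-270 line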
Description: SANGER: Inhibition of human KYSE-270 cell growth in a cell viability assay.

PANC-03-27 = type: functional, cell-based, Homo sapiens; conditions: Homo sapiens, PANC-03-27
Description: SANGER: Inhibition of human PANC-03-27 cell growth in a cell viability assay.

BT-474 = type: functional, cell-based, Homo sapiens; conditions: Homo sapiens, BT-474
Description: SANGER: Inhibition of human BT-474 cell growth in a cell viability assay.

COLO-792 = type: functional, cell-based, Homo sapiens; conditions: Homo sapiens, COLO-792
Description: SANGER: Inhibition of human COLO-792 cell growth in a cell viability assay.

MG-63 = type: functional, cell-based, Homo sapiens; conditions: Homo sapiens, MG-63;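 also: growth inhibition of human MG-63 cells, read out with a cell viability assay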
Description: SANGER: Inhibition of human MG-63 cell growth in a cell viability assay.

HD-MY-Z = type: functional, cell-based, Homo sapiens; conditions: Homo sapiens, HD-MY-Z;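 also: growth inhibition of HD-MY-Z cells, read out with a cell viability assay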
Description: SANGER: Inhibition of human HD-MY-Z cell growth in a cell viability assay.

EW-13 = type: functional, cell-based; conditions: Homo sapiens;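 also: growth inhibition of EW-13 cells, read out with a cell viability assay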
Description: SANGER: Inhibition of human EW-13 cell growth in a cell viability assay.

NTERA-2-cl-D1 = type: functional, cell-based, Homo sapiens; conditions: Homo sapiens, NTERA-2-cl-D1;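 also: inhibition of cell growth, measured with a cell viability assay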
Description: SANGER: Inhibition of human NTERA-S-cl-D1 cell growth in a cell viability assay.

EFO-21 = type: functional, cell-based, Homo sapiens; conditions: Homo sapiens, EFO-21;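 also: growth inhibition of EFO-21 cells measured with a viability assay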
Description: SANGER: Inhibition of human EFO-21 cell growth in a cell viability assay.

Daoy = type: functional, cell-based, Homo sapiens; conditions: Homo sapiens, Daoy;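 also: daoy cell growth inhibition, read out as cell viability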
Description: SANGER: Inhibition of human Daoy cell growth in a cell viability assay.

769-P = type: functional, cell-based, Homo sapiens; conditions: Homo sapiens, 769-P
Description: SANGER: Inhibition of human 769-P cell growth in a cell viability assay.

HuO-3N1 = type: functional, cell-based, Homo sapiens; conditions: Homo sapiens, HuO-3N1;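 also: cell viability readout used to measure how strongly compounds suppress proliferation of human HuO-3N1 cells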
Description: SANGER: Inhibition of human HuO-3N1 cell growth in a cell viability assay.

SNU-C2B = type: functional, cell-based, Homo sapiens; conditions: Homo sapiens, SNU-C2B;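 also: cell viability readout used to measure compound-driven suppression of SNU-C2B cell proliferation, IC50 marking half-maximal growth inhibition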
Description: SANGER: Inhibition of human SNU-C2B cell growth in a cell viability assay.

ABC-1 = type: functional, cell-based, Homo sapiens; conditions: Homo sapiens, ABC-1;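 also: growth inhibition of human ABC-1 cells, read out by a cell viability assay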
Description: SANGER: Inhibition of human ABC-1 cell growth in a cell viability assay.

LoVo = type: functional, cell-based; conditions: Homo sapiens;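 also: growth inhibition of human LoVo cells, read out with a cell viability assay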
Description: SANGER: Inhibition of human LoVo cell growth in a cell viability assay.

TE-6 = type: functional, cell-based, Homo sapiens; conditions: Homo sapiens, TE-6;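 also: growth inhibition of TE-6 cells, read out with a cell viability assay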
Description: SANGER: Inhibition of human TE-6 cell growth in a cell viability assay.

HCC70 = type: functional, cell-based, Homo sapiens; conditions: Homo sapiens, HCC70;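 also: cell viability assay measuring how strongly the compound suppresses proliferation of HCC70 cells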
Description: SANGER: Inhibition of human HCC70 cell growth in a cell viability assay.

ES7 = type: functional, cell-based, Homo sapiens; conditions: Homo sapiens, ES7;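 also: growth inhibition of cultured human ES7 cells, read out as cell viability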
Description: SANGER: Inhibition of human ES7 cell growth in a cell viability assay.

SW982 = type: functional, cell-based; conditions: Homo sapiens;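 also: growth inhibition of SW982 cells, read out with a cell viability assay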
Description: SANGER: Inhibition of human SW982 cell growth in a cell viability assay.

MKN-7 = type: functional, cell-based, Homo sapiens; conditions: Homo sapiens, MKN-7;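 also: growth inhibition of MKN-7 cells, read out with a cell viability assay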
Description: SANGER: Inhibition of human MKN7 cell growth in a cell viability assay.

NCI-H2030 = type: functional, cell-based, Homo sapiens; conditions: Homo sapiens, NCI-H2030;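 also: growth inhibition of human NCI-H2030 cells, read out by a cell viability assay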
Description: SANGER: Inhibition of human NCI-H2030 cell growth in a cell viability assay.

NB14 = type: functional, cell-based; conditions: Homo sapiens;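 also: growth inhibition of NB14 cells measured with a cell viability assay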
Description: SANGER: Inhibition of human NB14 cell growth in a cell viability assay.

NCI-H1155 = type: functional, cell-based; conditions: Homo sapiens;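 also: cell growth inhibition measured by a viability assay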
Description: SANGER: Inhibition of human NCI-H1155 cell growth in a cell viability assay.

COLO-320-HSR = type: functional, cell-based; conditions: Homo sapiens;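 also: growth inhibition of COLO-320-HSR cells, determined with a cell viability assay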
Description: SANGER: Inhibition of human COLO-320-HSR cell growth in a cell viability assay.

ES8 = type: functional, cell-based, Homo sapiens; conditions: Homo sapiens, ES8;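 also: growth inhibition of human ES8 cells, read out with a cell viability assay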
Description: SANGER: Inhibition of human ES8 cell growth in a cell viability assay.

COLO-824 = type: functional, cell-based, Homo sapiens; conditions: Homo sapiens, COLO-824
Description: SANGER: Inhibition of human COLO-824 cell growth in a cell viability assay.

RO82-W-1 = type: functional, cell-based, Homo sapiens; conditions: Homo sapiens, RO82-W-1;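 also: growth inhibition of human RO82-W-1 cells, measured with a cell viability assay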
Description: SANGER: Inhibition of human RO82-W-1 cell growth in a cell viability assay.

RMG-I = type: functional, cell-based, Homo sapiens; conditions: Homo sapiens, RMG-I;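 also: growth inhibition of human RMG-I cells, read out with a cell viability assay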
Description: SANGER: Inhibition of human RMG-I cell growth in a cell viability assay.

SW1088 = type: functional, cell-based, Homo sapiens; conditions: Homo sapiens, SW1088;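 also: growth inhibition of human SW1088 cells, read out by a cell viability assay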
Description: SANGER: Inhibition of human SW1088 cell growth in a cell viability assay.

J82 = type: functional, cell-based; conditions: Homo sapiens;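 also: growth inhibition of J82 cells, read out with a cell viability assay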
Description: SANGER: Inhibition of human J82 cell growth in a cell viability assay.

COLO-668 = type: functional, cell-based, Homo sapiens; conditions: Homo sapiens, COLO-668
Description: SANGER: Inhibition of human COLO-668 cell growth in a cell viability assay.

MDA-MB-231 = type: functional, cell-based, Homo sapiens; conditions: Homo sapiens, MDA-MB-231
Description: SANGER: Inhibition of human MDA-MB-231 cell growth in a cell viability assay.

C2BBe1 = type: functional, cell-based, Homo sapiens; conditions: Homo sapiens, C2BBe1;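 also: growth inhibition of C2BBe1 cells, read out through a viability assay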
Description: SANGER: Inhibition of human C2BBe1 cell growth in a cell viability assay.

NCI-H1355 = type: functional, cell-based, Homo sapiens; conditions: Homo sapiens, NCI-H1355;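 also: growth inhibition of human NCI-H1355 cells, read out by a cell viability assay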
Description: SANGER: Inhibition of human NCI-H1355 cell growth in a cell viability assay.

TYK-nu = type: functional, cell-based, Homo sapiens; conditions: Homo sapiens, TYK-nu;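 also: growth inhibition of human TYK-nu cells, read out by a cell viability assay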
Description: SANGER: Inhibition of human TYK-nu cell growth in a cell viability assay.

NCI-H28 = type: functional, cell-based, Homo sapiens; conditions: Homo sapiens, NCI-H28;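 also: growth inhibition of human NCI-H28 cells, read out as cell viability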
Description: SANGER: Inhibition of human NCI-H28 cell growth in a cell viability assay.

D-263MG = type: functional, cell-based, Homo sapiens; conditions: Homo sapiens, D-263MG
Description: SANGER: Inhibition of human D-263MG cell growth in a cell viability assay.

A2058 = type: functional, cell-based; conditions: Homo sapiens;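 also: reduction of A2058 cell growth, read out with a viability assay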
Description: SANGER: Inhibition of human A2058 cell growth in a cell viability assay.

D-542MG = type: functional, cell-based, Homo sapiens; conditions: Homo sapiens, D-542MG
Description: SANGER: Inhibition of human D-542MG cell growth in a cell viability assay.

HOP-62 = type: functional, cell-based, Homo sapiens; conditions: Homo sapiens, HOP-62;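 also: cell growth inhibition determined with a viability assay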
Description: SANGER: Inhibition of human HOP-62 cell growth in a cell viability assay.

Which results are given for `COc1cc(F)c(F)c(Nc2ccc(I)cc2F)c1NS(=O)(=O)C1(CC(O)CO)CC1` (stereo not drawn)?
IC50 (YAPC): > 5 µM; IC50 (HCC1937): > 5 µM; IC50 (MDA-MB-157): > 5 µM; IC50 (SW48): > 5 µM; IC50 (HCC1806): > 5 µM; IC50 (CAKI-1): > 5 µM; IC50 (HGC-27): > 5 µM; IC50 (EW-1): > 5 µM; IC50 (MOLT-4): > 5 µM; IC50 (COLO-680N): > 5 µM; IC50 (KU812 cell line): 0.239 µM; IC50 (KYSE-270): > 5 µM; IC50 (PANC-03-27): 0.768 µM; IC50 (BT-474): > 5 µM; IC50 (COLO-792): 0.761 µM; IC50 (MG-63): 2.82 µM; IC50 (HD-MY-Z): 0.886 µM; IC50 (EW-13): > 5 µM; IC50 (NTERA-2-cl-D1): > 5 µM; IC50 (EFO-21): > 5 µM; IC50 (Daoy): > 5 µM; IC50 (769-P): > 5 µM; IC50 (HuO-3N1): > 5 µM; IC50 (SNU-C2B): > 5 µM; IC50 (ABC-1): > 5 µM; IC50 (LoVo): 0.396 µM; IC50 (TE-6): > 5 µM; IC50 (HCC70): > 5 µM; IC50 (ES7): > 5 µM; IC50 (SW982): 0.436 µM; IC50 (MKN-7): > 5 µM; IC50 (NCI-H2030): > 5 µM; IC50 (NB14): > 5 µM; IC50 (NCI-H1155): > 5 µM; IC50 (COLO-320-HSR): > 5 µM; IC50 (ES8): > 5 µM; IC50 (COLO-824): > 5 µM; IC50 (RO82-W-1): > 5 µM; IC50 (RMG-I): > 5 µM; IC50 (SW1088): > 5 µM; IC50 (J82): > 5 µM; IC50 (COLO-668): > 5 µM; IC50 (MDA-MB-231): 1.12 µM; IC50 (C2BBe1): 0.559 µM; IC50 (NCI-H1355): > 5 µM; IC50 (TYK-nu): 0.441 µM; IC50 (NCI-H28): > 5 µM; IC50 (D-263MG): 0.431 µM; IC50 (A2058): 3.8 µM

For `COC(=O)CNC(=O)C(=O)OC`, which IC50 (YAPC) is on record?
The IC50 was > 4000 µM.

And the IC50 (HCC1937)?
The IC50 was 893 µM.

And the IC50 (MDA-MB-157)?
The IC50 was 566 µM.

And the IC50 (SW48)?
The IC50 was 1990 µM.

And the IC50 (HCC1806)?
Its IC50 is 1840 µM.

What about the IC50 (CAKI-1) of the same compound?
The IC50 was 289 µM.

And the IC50 (HGC-27)?
The IC50 was 188 µM.

What about the IC50 (EW-1) of the same compound?
The IC50 was 977 µM.

And the IC50 (MOLT-4)?
The IC50 was 718 µM.

And the IC50 (COLO-680N)?
Its IC50 is 242 µM.

What about the IC50 (KU812 cell line) of the same compound?
The IC50 was 28.5 µM.

What about the IC50 (KYSE-270) of the same compound?
Its IC50 is 275 µM.

And the IC50 (PANC-03-27)?
Its IC50 is 672 µM.

And the IC50 (BT-474)?
Its IC50 is > 4000 µM.

And the IC50 (COLO-792)?
The IC50 was > 4000 µM.

What about the IC50 (MG-63) of the same compound?
The IC50 was 144 µM.

And the IC50 (D-542MG)?
Its IC50 is 560 µM.

What about the IC50 (HD-MY-Z) of the same compound?
The IC50 was 1480 µM.

And the IC50 (EW-13)?
Its IC50 is 39 µM.

What about the IC50 (NTERA-2-cl-D1) of the same compound?
Its IC50 is 57.6 µM.

And the IC50 (EFO-21)?
Its IC50 is 260 µM.

What about the IC50 (Daoy) of the same compound?
The IC50 was 247 µM.

And the IC50 (769-P)?
Its IC50 is > 4000 µM.

And the IC50 (HuO-3N1)?
Its IC50 is 701 µM.

And the IC50 (SNU-C2B)?
Its IC50 is > 4000 µM.

What about the IC50 (ABC-1) of the same compound?
Its IC50 is 447 µM.

And the IC50 (LoVo)?
Its IC50 is 951 µM.

And the IC50 (TE-6)?
The IC50 was 1360 µM.

And the IC50 (HCC70)?
Its IC50 is 306 µM.

And the IC50 (ES7)?
The IC50 was 478 µM.

What about the IC50 (SW982) of the same compound?
Its IC50 is 33.7 µM.

What about the IC50 (MKN-7) of the same compound?
Its IC50 is > 4000 µM.

And the IC50 (NCI-H2030)?
The IC50 was 105 µM.

What about the IC50 (NCI-H1155) of the same compound?
The IC50 was 1540 µM.

And the IC50 (COLO-320-HSR)?
The IC50 was > 4000 µM.

And the IC50 (ES8)?
The IC50 was 673 µM.

And the IC50 (COLO-824)?
The IC50 was 2400 µM.

What about the IC50 (HOP-62) of the same compound?
Its IC50 is 167 µM.

What about the IC50 (RO82-W-1) of the same compound?
The IC50 was > 4000 µM.

And the IC50 (RMG-I)?
Its IC50 is 820 µM.

And the IC50 (SW1088)?
Its IC50 is 2720 µM.

And the IC50 (J82)?
Its IC50 is 57.6 µM.

What about the IC50 (COLO-668) of the same compound?
The IC50 was 93.8 µM.

What about the IC50 (MDA-MB-231) of the same compound?
The IC50 was 368 µM.

And the IC50 (C2BBe1)?
The IC50 was 1730 µM.

And the IC50 (NCI-H1355)?
Its IC50 is 274 µM.

What about the IC50 (NCI-H28) of the same compound?
Its IC50 is 1350 µM.

What about the IC50 (D-263MG) of the same compound?
The IC50 was 410 µM.

What about the IC50 (A2058) of the same compound?
Its IC50 is 166 µM.
